# Patent publication US11206830B2, “Herbicidal composition comprising glufosinate or a salt thereof and pyroxasulfone” (BASF SE, priority 2008, dated 2021)
# Several values for one entry are separate records, joined by “and”; a condition that tells them apart may be missing. Equal entries are not always repeated. Where two headings read alike, the source gives them in different places.
# Key:
# Type in all cases: in vivo
# [1] = system: Alopecurus myosuroides (ALOMY); assay: greenhouse post-emergence herbicidal activity on ALOMY
# From the text: (§1) For the post-emergence treatment, the test plants were first grown to a height of 3 to 20 cm, depending on the plant habit, and only then treated. Here, the herbicidal compositions were suspended or emulsified in water as distribution medium and sprayed using finely distributing nozzles.
# (§2) The respective herbicides B and/or safener were formulated as 10% by weight strength suspension concentrate and introduced to the spray liquor with the amount of solvent system used for applying the active compound. Herbicides A, C and/or safener were used as commercially available formulations and introduced to the spray liquor with the amount of solvent system used for applying the active compound. In the examples, the solvent used was water.
# (§3) The test period extended over 21 days. During this time, the plants were tended, and their response to the treatments with active compound was evaluated.
# (§4) The evaluation for the damage caused by the chemical compositions was carried out using a scale from 0 to 100%, compared to the untreated control plants. Here, 0 means no damage and 100 means complete destruction of the plants.
# (§5) The value E, which is to be expected if the activity of the individual compounds is just additive, was calculated using the method of S. R. Colby (1967) “Calculating synergistic and antagonistic responses of herbicide combinations”, Weeds 15, p. 22 ff. For two component mixtures the value E was calculated by the following formula E=X+Y−(X·Y/100)
# (§6) For three component mixtures the value E was calculated by the following formula E=X+Y+Z−(XY+XZ+YZ)/100+(X·YZ/10000) where X=effect in percent using herbicide A at an application rate a; • Y=effect in percent using herbicide B at an application rate b; • Z=effect in percent using herbicide C at an application rate c; • E=expected effect (in %) of A+B at application rates a+b. or • E=expected effect (in %) of A+B+C at application rates a+b+c.
# (§7) If the value observed in this manner is higher than the value E calculated according to Colby, a synergistic effect is present.
# (§8) Tables 1 to 12 relate to the herbicidal activity of the individual actives and of their combinations in post-emergence application assessed 20 DAT.
# [2] = system: Digitaria sanguinalis (DIGSA); assay: greenhouse post-emergence herbicidal activity on DIGSA; settings: Digitaria sanguinalis, 480 h, read-out: % activity 20 DAT
# From the text: as §1, §2, §3, §4, §5, §6, §7, §8
# [3] = system: Lolium multiflorum (LOLMU); assay: greenhouse post-emergence herbicidal activity on LOLMU
# From the text: as §1, §2, §3, §4, §5, §6, §7, §8
# [4] = system: Abutilon theophrasti (ABUTH); assay: greenhouse post-emergence herbicidal activity on ABUTH
# From the text: as §1, §2, §3, §4, §5, §6, §7, §8
# [5] = system: Chenopodium album (CHEAL); assay: greenhouse post-emergence herbicidal activity on CHEAL
# From the text: as §1, §2, §3, §4, §5, §6, §7, §8
# Galium aparine (GALAP) = assay: greenhouse post-emergence herbicidal activity on GALAP; settings: solo application
# From the text: as §1, §2, §3, §4, §5, §6, §7, §8
# [6] = system: Matricaria inermis (MATIN); assay: greenhouse post-emergence herbicidal activity on MATIN
# From the text: as §1, §2, §3, §4, §5, §6, §7, §8
# Setaria viridis (SETVI) = assay: greenhouse post-emergence herbicidal activity on SETVI; settings: 480 h, read-out: % activity 20 DAT
# From the text: as §1, §2, §3
# (§9) The evaluation for the damage caused by the chemical compositions was carried out using a scale from 0 to 100%, compared to the untreated control plants. […]
# (§10) The value E, which is to be expected if the activity of the individual compounds is just additive, was calculated using the method of S. R. Colby (1967) “Calculating synergistic and antagonistic responses of herbicide combinations”, Weeds 15, p. […] For two component mixtures the value E was calculated by the following formula E=X+Y−(X·Y/100)
# as §6, §7, §8
# [7] = system: Amaranthus retroflexus (AMARE); assay: greenhouse post-emergence herbicidal activity on AMARE; settings: 480 h, read-out: % activity 20 DAT
# From the text: as §1, §2, §3, §9, §10, §6, §7, §8
# Sinapis arvensis (SINAR) = assay: greenhouse post-emergence herbicidal activity on SINAR; settings: Mutarda arvensis, 480 h, read-out: % activity 20 DAT
# From the text: as §1, §2, §3, §9, §10, §6, §7, §8
# [8] = system: Polygonum convolvulus (POLCO); assay: greenhouse post-emergence herbicidal activity on POLCO; settings: Fallopia convolvulus, 480 h, read-out: % activity 20 DAT
# From the text: as §1, §2, §3, §4, §5, §6, §7, §8
# Avena fatua (AVEFA) = assay: greenhouse post-emergence herbicidal activity on AVEFA; settings: 480 h, read-out: % activity 20 DAT
# From the text: as §1, §2, §3, §4, §5, §6, §7, §8
# [9] = system: Echinochloa crus-galli (ECHCG); assay: greenhouse post-emergence herbicidal activity on ECHCG; settings: Echinochloa crus-galli, 480 h, read-out: % activity 20 DAT
# From the text: as §1, §2, §3, §9, §10, §6, §7, §8
smiles,measurement,setting,value
"O=C(O)CNCP(=O)(O)O [glyphosate, N-(phosphonomethyl)glycine]",inhibition at 50 g/ha,"[1]; Alopecurus myosuroides, 480 h, read-out: % activity 20 DAT, post-emergence, solo application, 50 g ai/ha",20%
same,inhibition at 100 g/ha,"[1]; Alopecurus myosuroides, 480 h, read-out: % activity 20 DAT, post-emergence, solo application, 100 g ai/ha",40%
same,inhibition at 200 g/ha,"[1]; Alopecurus myosuroides, 480 h, read-out: % activity 20 DAT, post-emergence, solo application, 200 g ai/ha",85%
same,% activity 20 DAT,"[1]; solo application, 50 g ai/ha",15%
same,% activity 20 DAT,"[1]; solo application, 100 g ai/ha",30%
same,inhibition at 50 g/ha,[2],70%
same,inhibition at 100 g/ha,[2],85%
same,inhibition at 50 g/ha,"[3]; Lolium multiflorum, 480 h, read-out: % activity 20 DAT, post-emergence, solo application, 50 g ai/ha",40%
same,inhibition at 100 g/ha,"[3]; Lolium multiflorum, 480 h, read-out: % activity 20 DAT, post-emergence, solo application, 100 g ai/ha",75%
same,% activity 20 DAT,"[3]; solo application, 50 g ai/ha",45%
same,inhibition at 50 g/ha,"[4]; Abutilon theophrasti, 480 h, read-out: % activity 20 DAT, post-emergence, solo application, 50 g ai/ha",0%
same,inhibition at 200 g/ha,"[4]; Abutilon theophrasti, 480 h, read-out: % activity 20 DAT, post-emergence, solo application, 200 g ai/ha",70%
same,inhibition at 50 g/ha,"[5]; Chenopodium album, 480 h, read-out: % activity 20 DAT, post-emergence, solo application, 50 g ai/ha",40%
same,inhibition at 200 g/ha,"[5]; Chenopodium album, 480 h, read-out: % activity 20 DAT, post-emergence, solo application, 200 g ai/ha",80%
same,% activity 20 DAT,"[5]; solo application, 50 g ai/ha",30%
same,% activity 20 DAT,"[5]; solo application, 100 g ai/ha",50% and 85%
same,% activity 20 DAT,Galium aparine (GALAP); 50 g ai/ha,10%
same,inhibition at 100 g/ha,"[6]; Matricaria, 480 h, read-out: % activity 20 DAT, post-emergence, solo application, 100 g ai/ha",90%
same,inhibition at 400 g/ha,"[6]; Matricaria, 480 h, read-out: % activity 20 DAT, post-emergence, solo application, 400 g ai/ha",95%
same,% activity 20 DAT,"[6]; solo application, 50 g ai/ha",65%
same,inhibition at 50 g/ha,Setaria viridis (SETVI),70%
same,inhibition at 50 g/ha,[7],90%
same,inhibition at 50 g/ha,Sinapis arvensis (SINAR),80%
same,inhibition at 50 g/ha,[8],30%
same,inhibition at 100 g/ha,[8],50%
same,inhibition at 200 g/ha,[8],50%
same,inhibition at 400 g/ha,[8],90%
same,inhibition at 100 g/ha,Avena fatua (AVEFA),45%
same,inhibition at 50 g/ha,[9],30%
"Cn1nc(C(F)(F)F)c(CS(=O)(=O)C2=NOC(C)(C)C2)c1OC(F)F [pyroxasulfone, 3-[5-(difluoromethoxy)-1-methyl-3-(trifluoromethyl)pyrazol-4-ylmethylsulfonyl]-4,5-dihydro-5,5-dimethyl-1,2-oxazole]",inhibition at 12.5 g/ha,"[1]; Alopecurus myosuroides, 480 h, solo application, 12.5 g ai/ha, read-out: % activity 20 DAT",30%
same,inhibition at 25 g/ha,"[1]; Alopecurus myosuroides, 480 h, solo application, 25 g ai/ha, read-out: % activity 20 DAT",50%
same,inhibition at 50 g/ha,"[1]; Alopecurus myosuroides, 480 h, solo application, 50 g ai/ha, read-out: % activity 20 DAT",50%
same,% activity 20 DAT,"[1]; solo application, 12.5 g ai/ha",40%
same,% activity 20 DAT,"[1]; solo application, 25 g ai/ha",70%
same,inhibition at 12.5 g/ha,"[2]; solo application, 12.5 g ai/ha",40%
same,inhibition at 25 g/ha,"[2]; solo application, 25 g ai/ha",50%
same,inhibition at 12.5 g/ha,"[3]; Lolium multiflorum, 480 h, solo application, 12.5 g ai/ha, read-out: % activity 20 DAT",50%
same,inhibition at 25 g/ha,"[3]; Lolium multiflorum, 480 h, solo application, 25 g ai/ha, read-out: % activity 20 DAT",50%
same,% activity 20 DAT,"[3]; solo application, 12.5 g ai/ha",55%
same,inhibition at 12.5 g/ha,"[4]; Abutilon theophrasti, 480 h, solo application, 12.5 g ai/ha, read-out: % activity 20 DAT",40%
same,inhibition at 50 g/ha,"[4]; Abutilon theophrasti, 480 h, solo application, 50 g ai/ha, read-out: % activity 20 DAT",70%
same,% activity 20 DAT,"[4]; solo application, 12.5 g ai/ha",60%
same,% activity 20 DAT,"[4]; solo application, 25 g ai/ha",65%
same,inhibition at 12.5 g/ha,"[5]; Chenopodium album, 480 h, solo application, 12.5 g ai/ha, read-out: % activity 20 DAT",20%
same,inhibition at 50 g/ha,"[5]; Chenopodium album, 480 h, solo application, 50 g ai/ha, read-out: % activity 20 DAT",20%
same,% activity 20 DAT,"[5]; solo application, 12.5 g ai/ha",35%
same,inhibition at 25 g/ha,"Galium aparine (GALAP); Galium aparine, 480 h, 25 g ai/ha, read-out: % activity 20 DAT",80%
same,% activity 20 DAT,Galium aparine (GALAP); 12.5 g ai/ha,70% and 40%
same,% activity 20 DAT,Galium aparine (GALAP); 25 g ai/ha,85%
same,inhibition at 12.5 g/ha,"[6]; Matricaria, 480 h, solo application, 12.5 g ai/ha, read-out: % activity 20 DAT",0%
same,inhibition at 25 g/ha,"[6]; Matricaria, 480 h, solo application, 25 g ai/ha, read-out: % activity 20 DAT",0%
same,inhibition at 100 g/ha,"[6]; Matricaria, 480 h, solo application, 100 g ai/ha, read-out: % activity 20 DAT",15%
same,inhibition at 12.5 g/ha,"Setaria viridis (SETVI); solo application, 12.5 g ai/ha",70%
same,inhibition at 12.5 g/ha,"[7]; solo application, 12.5 g ai/ha",75%
same,inhibition at 12.5 g/ha,"Sinapis arvensis (SINAR); solo application, 12.5 g ai/ha",65%
same,inhibition at 12.5 g/ha,"[8]; solo application, 12.5 g ai/ha",35%
same,inhibition at 25 g/ha,"[8]; solo application, 25 g ai/ha",50%
same,inhibition at 50 g/ha,"[8]; solo application, 50 g ai/ha",50%
same,inhibition at 100 g/ha,"[8]; solo application, 100 g ai/ha",65%
same,inhibition at 25 g/ha,"Avena fatua (AVEFA); solo application, 25 g ai/ha",75%
same,inhibition at 12.5 g/ha,"[9]; solo application, 12.5 g ai/ha",75%
